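96-well plates; 48 h exposure; 5 concentrations. Endpoints by linear interpolation between flanking doses. Not reached: highest tested concentration assigned. Here, GI50 denotes the concentration required for 50% inhibition of growth. Definition used: TGI = concentration required for complete inhibition of growth.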
Assays:
Test in all cases: inhibition of tumour cell growth, NCI panel, 48 h
RXF 393 renal = system: RXF 393 renal
COLO 205 colon = system: COLO 205 colon
HCT-116 colon = system: HCT-116 colon
HL-60(TB) leukemia = system: HL-60(TB) leukemia
A549 NSCLC = system: A549 NSCLC
HCC-2998 colon = system: HCC-2998 colon
UACC-257 melanoma = system: UACC-257 melanoma
SK-OV-3 ovarian = system: SK-OV-3 ovarian
OVCAR-8 ovarian = system: OVCAR-8 ovarian
OVCAR-5 ovarian = system: OVCAR-5 ovarian
KM12 colon = system: KM12 colon
NCI-H226 lung = system: NCI-H226 lung
LOX IMVI melanoma = system: LOX IMVI melanoma
A498 renal = system: A498 renal
K-562 leukemia = system: K-562 leukemia
HOP-62 NSCLC = system: HOP-62 NSCLC
ACHN renal = system: ACHN renal
IGROV1 ovarian = system: IGROV1 ovarian
MDA-MB-231 breast = system: MDA-MB-231 breast
MCF7 breast = system: MCF7 breast
NCI-H460 lung = system: NCI-H460 lung
SF-268 CNS = system: SF-268 CNS
SR leukemia = system: SR leukemia
HS 578T breast = system: HS 578T breast
MALME-3M melanoma = system: MALME-3M melanoma
SK-MEL-28 melanoma = system: SK-MEL-28 melanoma
SF-295 CNS = system: SF-295 CNS
CCRF-CEM leukemia = system: CCRF-CEM leukemia
OVCAR-4 ovarian = system: OVCAR-4 ovarian
SK-MEL-2 melanoma = system: SK-MEL-2 melanoma
SNB-19 CNS = system: SNB-19 CNS
HOP-92 NSCLC = system: HOP-92 NSCLC
T-47D breast = system: T-47D breast
M14 melanoma = system: M14 melanoma
PC-3 prostate = system: PC-3 prostate
MDA-MB-435 = system: MDA-MB-435
HT29 colon = system: HT29 colon
SN12C renal = system: SN12C renal
RPMI-8226 leukemia = system: RPMI-8226 leukemia
SK-MEL-5 melanoma = system: SK-MEL-5 melanoma
BT-549 breast = system: BT-549 breast
NCI-H522 lung = system: NCI-H522 lung
NCI/ADR-RES ovarian = system: NCI/ADR-RES ovarian
NCI-H23 lung = system: NCI-H23 lung
SW-620 colon = system: SW-620 colon
DU-145 prostate = system: DU-145 prostate
OVCAR-3 ovarian = system: OVCAR-3 ovarian
786-0 renal = system: 786-0 renal
TK-10 renal = system: TK-10 renal
HCT-15 colon = system: HCT-15 colon
U251 CNS = system: U251 CNS
SF-539 CNS = system: SF-539 CNS
CAKI-1 renal = system: CAKI-1 renal
UACC-62 melanoma = system: UACC-62 melanoma
UO-31 renal = system: UO-31 renal
MOLT-4 leukemia = system: MOLT-4 leukemia
EKVX NSCLC = system: EKVX NSCLC
SNB-75 CNS = system: SNB-75 CNS

## C/C=C(/C)C(=O)OC1C=C(CO)C(=O)C(OC(=O)C2(C)OC2C)C1C(C)C (stereo not drawn)
RXF 393 renal
  GI50: 1770 nM
  TGI: 3270 nM
COLO 205 colon
  GI50: 1850 nM
  TGI: 3430 nM
HCT-116 colon
  GI50: 1130 nM
  TGI: 2480 nM
HL-60(TB) leukemia
  GI50: 1160 nM
  TGI: 6450 nM
A549 NSCLC
  GI50: 2600 nM
  TGI: 7700 nM
HCC-2998 colon
  GI50: 1740 nM
  TGI: 3220 nM
UACC-257 melanoma
  GI50: 1370 nM
  TGI: 2750 nM
SK-OV-3 ovarian
  GI50: 4450 nM
  TGI: 14300 nM
OVCAR-8 ovarian
  GI50: 2070 nM
  TGI: 5540 nM
OVCAR-5 ovarian
  GI50: 1930 nM
  TGI: 3740 nM
KM12 colon
  GI50: 1830 nM
  TGI: 3670 nM
NCI-H226 lung
  GI50: 3550 nM
  TGI: 13700 nM
LOX IMVI melanoma
  GI50: 1710 nM
  TGI: 3300 nM
A498 renal
  GI50: 1740 nM
  TGI: 3900 nM
K-562 leukemia
  GI50: 1330 nM
  TGI: 10800 nM
HOP-62 NSCLC
  GI50: 1960 nM
  TGI: 4300 nM
ACHN renal
  GI50: 1480 nM
  TGI: 2810 nM
IGROV1 ovarian
  GI50: 1990 nM
  TGI: 4550 nM
MDA-MB-231 breast
  GI50: 1720 nM
  TGI: 3790 nM
MCF7 breast
  GI50: 1190 nM
  TGI: 4140 nM
NCI-H460 lung
  GI50: 2930 nM
  TGI: 8270 nM
SF-268 CNS
  GI50: 2460 nM
  TGI: 6320 nM
SR leukemia
  GI50: 778 nM
  TGI: 8200 nM
HS 578T breast
  GI50: 3680 nM
  TGI: 22900 nM
MALME-3M melanoma
  GI50: 1740 nM
  TGI: 3530 nM
SK-MEL-28 melanoma
  GI50: 1780 nM
  TGI: 3330 nM
SF-295 CNS
  GI50: 2620 nM
  TGI: 8160 nM
CCRF-CEM leukemia
  GI50: 653 nM
  TGI: 5250 nM
OVCAR-4 ovarian
  GI50: 1930 nM
  TGI: 3910 nM
SK-MEL-2 melanoma
  GI50: 1850 nM
  TGI: 3590 nM
SNB-19 CNS
  GI50: 2330 nM
  TGI: 5870 nM
HOP-92 NSCLC
  GI50: 1650 nM
  TGI: 3330 nM
T-47D breast
  GI50: 1270 nM
  TGI: 2790 nM
M14 melanoma
  GI50: 1580 nM
  TGI: 3490 nM
PC-3 prostate
  GI50: 1750 nM
  TGI: 4500 nM
MDA-MB-435
  GI50: 1490 nM
  TGI: 2880 nM
HT29 colon
  GI50: 1660 nM
  TGI: 3380 nM
SN12C renal
  GI50: 1450 nM
  TGI: 2990 nM
RPMI-8226 leukemia
  GI50: 1500 nM
  TGI: 5170 nM
SK-MEL-5 melanoma
  GI50: 1560 nM
  TGI: 3040 nM
BT-549 breast
  GI50: 2020 nM
  TGI: 4350 nM
NCI-H522 lung
  GI50: 1070 nM
  TGI: 2540 nM
NCI/ADR-RES ovarian
  GI50: 3180 nM
  TGI: 17400 nM
NCI-H23 lung
  GI50: 2090 nM
  TGI: 4880 nM
SW-620 colon
  GI50: 1980 nM
  TGI: 4160 nM
DU-145 prostate
  GI50: 1520 nM
  TGI: 2880 nM
OVCAR-3 ovarian
  GI50: 1170 nM
  TGI: 2450 nM
786-0 renal
  GI50: 1790 nM
  TGI: 3240 nM
TK-10 renal
  GI50: 1880 nM
  TGI: 3360 nM
HCT-15 colon
  GI50: 1400 nM
  TGI: 3090 nM
U251 CNS
  GI50: 1520 nM
  TGI: 2850 nM
SF-539 CNS
  GI50: 1860 nM
  TGI: 3380 nM
CAKI-1 renal
  GI50: 1810 nM
  TGI: 3200 nM
UACC-62 melanoma
  GI50: 1330 nM
  TGI: 2680 nM
UO-31 renal
  GI50: 1610 nM
  TGI: 2960 nM
MOLT-4 leukemia
  GI50: 1960 nM
  TGI: 6500 nM
EKVX NSCLC
  GI50: 2750 nM
  TGI: 7630 nM

## CC(=O)NC(CCc1ccc(Cl)c(Cl)c1)c1cccc(O)c(=O)c1 (stereo not drawn)
RXF 393 renal
  GI50: 722 nM
  TGI: 14900 nM
COLO 205 colon
  GI50: 363 nM
  TGI: 18600 nM
HCT-116 colon
  GI50: 315 nM
  TGI: 15200 nM
HL-60(TB) leukemia
  GI50: 833 nM
  TGI: 5300 nM
A549 NSCLC
  GI50: 527 nM
  TGI: 11500 nM
HCC-2998 colon
  GI50: 1470 nM
  TGI: 13900 nM
UACC-257 melanoma
  GI50: 649 nM
  TGI: 4400 nM
SK-OV-3 ovarian
  GI50: 1430 nM
  TGI: 17400 nM
OVCAR-8 ovarian
  GI50: 346 nM
  TGI: 13100 nM
OVCAR-5 ovarian
  GI50: 1580 nM
  TGI: 21800 nM
KM12 colon
  GI50: 825 nM
  TGI: 17800 nM
NCI-H226 lung
  GI50: 633 nM
  TGI: 14200 nM
LOX IMVI melanoma
  GI50: 559 nM
  TGI: 7500 nM
A498 renal
  GI50: 1150 nM
  TGI: 25800 nM
K-562 leukemia
  GI50: 653 nM
  TGI: 29100 nM
HOP-62 NSCLC
  GI50: 393 nM
  TGI: 12200 nM
ACHN renal
  GI50: 286 nM
  TGI: 31600 nM
IGROV1 ovarian
  GI50: 539 nM
  TGI: 3330 nM
MDA-MB-231 breast
  GI50: 709 nM
  TGI: 15500 nM
MCF7 breast
  GI50: 412 nM
  TGI: 37400 nM
NCI-H460 lung
  GI50: 407 nM
  TGI: 11800 nM
SF-268 CNS
  GI50: 517 nM
  TGI: 14700 nM
SR leukemia
  GI50: 622 nM
  TGI: 31100 nM
HS 578T breast
  GI50: 2610 nM
  TGI: 32500 nM
MALME-3M melanoma
  GI50: 1450 nM
  TGI: 7120 nM
SK-MEL-28 melanoma
  GI50: 1070 nM
  TGI: 12300 nM
SF-295 CNS
  GI50: 399 nM
  TGI: 10000 nM
CCRF-CEM leukemia
  GI50: 398 nM
  TGI: 16300 nM
SNB-75 CNS
  GI50: 1870 nM
  TGI: 17100 nM
OVCAR-4 ovarian
  GI50: 302 nM
  TGI: 40400 nM
SK-MEL-2 melanoma
  GI50: 2800 nM
  TGI: 17100 nM
SNB-19 CNS
  GI50: 919 nM
  TGI: 18800 nM
HOP-92 NSCLC
  GI50: 1930 nM
  TGI: 15700 nM
T-47D breast
  GI50: 1100 nM
  TGI: 38600 nM
M14 melanoma
  GI50: 434 nM
  TGI: 3090 nM
PC-3 prostate
  GI50: 780 nM
  TGI: 24700 nM
MDA-MB-435
  GI50: 1070 nM
  TGI: 18900 nM
HT29 colon
  GI50: 784 nM
  TGI: 22000 nM
SN12C renal
  GI50: 485 nM
  TGI: 13100 nM
RPMI-8226 leukemia
  GI50: 1220 nM
  TGI: 19700 nM
SK-MEL-5 melanoma
  GI50: 234 nM
  TGI: 1140 nM
BT-549 breast
  GI50: 803 nM
  TGI: 12800 nM
NCI-H522 lung
  GI50: 488 nM
  TGI: 11900 nM
NCI/ADR-RES ovarian
  GI50: 338 nM
  TGI: 4920 nM
NCI-H23 lung
  GI50: 1110 nM
  TGI: 18900 nM
SW-620 colon
  GI50: 531 nM
  TGI: 23700 nM
DU-145 prostate
  GI50: 1180 nM
  TGI: > 49200 nM
OVCAR-3 ovarian
  GI50: 358 nM
  TGI: 14700 nM
786-0 renal
  GI50: 591 nM
  TGI: 12000 nM
TK-10 renal
  GI50: 864 nM
  TGI: > 100000 nM
HCT-15 colon
  GI50: 131 nM
  TGI: 19600 nM
U251 CNS
  GI50: 428 nM
  TGI: 11500 nM
SF-539 CNS
  GI50: 514 nM
  TGI: 5350 nM
CAKI-1 renal
  GI50: 195 nM
  TGI: 11900 nM
UACC-62 melanoma
  GI50: 619 nM
  TGI: 1980 nM
UO-31 renal
  GI50: 109 nM
  TGI: 2200 nM
MOLT-4 leukemia
  GI50: 740 nM
  TGI: 14400 nM
